Results: patent US20250122164A1, “N,N-[…] ANALOGS FOR TREATING BRAIN DISORDERS” (The Regents of the University of California, priority 2021, published 2025)
Entries after “also recorded” stand apart in the source; their conditions may differ.

Legend:
rat cortical neurons [1] = assay: Dendritogenesis (Sholl analysis) in cultured cortical neurons; type: cell-based; conditions: for dendritic complexity (Sholl analysis, Nmax): DIV 6 rat cortical cultures, 72-hours treatment, 10 uM and 100 nM, vs VEH; for dendritogenesis effect after ketanserin pretreatment: KTSN added 30 minutes before, 10-fold excess, DIV 6, 72-hours; for dendritic arbor complexity (Sholl analysis): increasing concentrations, efficacy in the nanomolar range
Description: For the dendritogenesis experiments conducted using cultured cortical neurons, E18 timed pregnant Sprague Dawley rats were obtained from Charles River Laboratories. Full culturing, staining and analysis experiments were performed as previously described with the exception that there was no media change during treatments. Dendrites were visualized using a chicken anti-MAP2 antibody (1:10,000; EnCor, CPCA-MAP2) as previously reported. DMSO and ketamine […] were used as vehicle and positive controls, respectively. For blocking experiments, ketanserin was added 30-minutes prior to addition of agonists in 10-fold excess.
(§1) Statistical Analysis. Appropriate samples sizes were estimated based on our previous experiences performing similar experiments. Treatments were randomized, and data were analyzed by experimenters blinded to treatment conditions. All comparisons were planned prior to performing each experiment. Statistical analyses were performed using GraphPad Prism (v.8.1.2). Data are represented as mean±s.e.m., unless otherwise noted, with asterisks indicating *P<0.05, **P<0.01, ***P<0.001 and ****P<0.0001.

rat cortical neurons [2] = assay: Spinogenesis (dendritic spine density) in mature cortical cultures; type: cell-based; conditions: for dendritic spine density: DIV 15 rat cortical neurons, 24-hours treatment; for spinogenesis effect after ketanserin pretreatment: KTSN 30-minute pretreatment, 10-fold excess, DIV 15, 24-hours
Description: Spinogenesis experiments were performed as previously described with the exception that cells were treated at DIV14 instead of DIV18 and then fixed on DIV15. The images were taken on a Nikon HCA Confocal microscope a with a 100x/NA 1.45 oil objective. DMSO and ketamine […] were used as vehicle and positive controls, respectively. For blocking experiments, ketanserin was added 30-minutes prior to addition of agonists in 10-fold excess.
as §1

[3] = Body temperature assay (IR thermometer); type: in vivo, mice; conditions: for increase in body temperature (hyperthermia): 12.5, 25, 50 mg/kg i.p., measured for 2-hours
Description: (§2) The head-twitch response assay was performed as described previously using both male and female C57BL/6J mice (3 each per treatment). The mice were obtained from Jackson Laboratory and were approximately 9 weeks old at the time of the experiments. Before injecting the mice, their baseline temperature was measured using an IR thermometer as described. Compounds were administered via intraperitoneal (i.p.) injection (5 ml kg-1) using 0.9% saline as the vehicle. Immediately after the animals were placed in an arena for 30-minutes where their locomotor activity was assessed using AnyMaze automated tracking software. The behavior was also videotaped and later scored by two blind overserves for head-twitch responses, the results were averaged. Upon completion of the novelty induced locomotion assay their temperature was measured at the 30-minute mark. The mice were then transferred to a holding cage with their other treatment matched cage mates and their temperature was measured at the 90 and 120-minute mark.

[4] = Novelty induced locomotion (NIL) test; type: in vivo, mice; conditions: for locomotion at the lower doses: 12.5 mg/kg and 25 mg/kg; for locomotion at highest dose: 50 mg/kg i.p., vs vehicle; for locomotion (total distance) in novel arena, dose dependence / time spent in the center of the arena: 12.5, 25, 50 mg/kg i.p., 30-minutes
Description: as §2

[5] = Head-twitch response (HTR) assay; type: in vivo, mice; conditions: first 20-minutes in novel arena; 12.5, 25, 50 mg/kg i.p.
Description: as §2

[6] = Cued fear conditioning / fear extinction; type: in vivo, mice; conditions: for fear extinction test curve vs vehicle: 12.5 and 25 mg/kg curves; for freezing during extinction training (day 2): 12.5 and 25 mg/kg i.p. 30-min before extinction training; for conditioned freezing on extinction testing day (24-hours later, drug-free): treatment i.p. 30-min before extinction training on day 2, 16 CS tones
From the text: Mice were exposed to cued fear conditioning on day 1, fear extinction training on day 2 and extinction testing on Day 3. Mice were habituated to handling for 3 days before experimentation. On the day of the experiment mice were allowed to habituate to the behavior room for 1-hour before beginning the experiment. 15-minutes before starting the experiment, mice were separated out into individual holding cages.
Cued fear conditioning consisted of six pairings of a CS auditory cue (80-85 dB white noise, 15 s) and a co-terminating US footshock (0.85 mA and 2 s), each spaced 1.5 minutes apart. The fear conditioning apparatus (Med Associates model #MED-VFC2-SCT-R) consisted of a 30.5 cm×24.1 cm×21 cm internal soundproof chamber, with metal grated floors, an infrared camera, a sound generator, and a light source. Mice were initially placed in the conditioning apparatus and the first 1.5 minutes were stimulus free. After the last shock, the animals remained in the chambers for an additional 2 min before being returned to their home cages. […] Freezing responses for fear conditioning (day 1) are presented as the percentage of time spent freezing during the last 1.5 minutes after the last shock. The apparatus was cleaned with 70% EtOH in between trials.
Cued fear memory was assessed by exposing the animals to a novel context (lights off, A-frame insert, smooth plastic floor insert, additional vanilla odor) for 2 min prior to 16 presentations of auditory cues (80 dB white noise, 15 s) spaced 15 s apart. Freezing responses for cue testing (day 2 and 3) are presented as the percentage of time spent freezing during the tone presentations. The procedure was repeated on day 3 in the absence of drug.
Fear conditioning experiments were performed between the hours of 08:00-11:00. Freezing behavior was scored using Med Associates Video Freeze software v2.25 (motion threshold=100 au, detection method=linear, minimum freeze duration=15 frames, which is equal to a 0.5 s freeze). The apparatus was cleaned with 70% EtOH in between trials on day 1 and Sani-cloth gemicidal disposable cloths (PDI, Q89072) were used to clean the apparatus on days 2 and 3.

5-HT2A biosensor = assay: psychLight 5-HT2A biosensor in cultured cortical neurons; type: cell-based; conditions: DIV 10-14 rat cortical neurons, 10 uM, vs vehicle
Description: E18 rat cortical neurons were plated at 60,000 cells/well in glass 96-well plates (P96-1.5H-N, Cellvis) coated with poly-D-lysine (Sigma, P6407-5MG). At day in vitro (DIV) 3-7 neurons were infected with AAV9_hSynapsin_psychLight2 (Neurophotonics-Viral Vector Core) or AAV9-hsyn-GRAB_5-HT1.0 (Addgene, 140552-AAV9) at an MOI of 70,000. Neurons were kept in the incubator for one week to allow for viral expression. On imaging day (DIV 10-14), media was aspirated and wells were washed (1×200 μL) with HBSS supplemented with 2 mM MgCl2 and 2 mM CaCl2. 50 μL HBSS was added to the wells of the assay plate and then imaged on a CellInsight CX7 HCA Platform (Thermo Fisher, CX7A1110) configured with a onstage incubator for live cell imaging (Thermo Fisher, NX7LIVE001) at 40×(N.A.=0.60) with 25 regions of interest (ROI) taken per well using an arbitrary ROI pattern for each well with no bias to location and no overlap of the ROIs (exposure=400 ms, LED power=100%). […]
Images were then analyzed using ImageJ by selecting ROIs surrounding individual neuronal cell bodies of the post-treatment images and recording the mean fluorescence, the same ROIs were applied to the pretreatment images to record the mean fluorescence. The […] values were calculated as previously reported.

[7] = patients, SR-MDMA paired psychotherapy; 25% in placebo group; cited from earlier work
SERT [8] = biological target: T1, SERT (Homo sapiens, UniProt P31645); assay: SERT efflux: [3H]5-HT release from SERT expressing HEK293T cells; type: cell-based; conditions: HEK293T cells transiently expressing SERT, 10 pM-100 uM
T1 construct: host or cells: HEK293T cells, transient transfection with Lipofectamine 3000
Description: HEK293T cells were grown in Dulbecco's Modified Eagle Media (DMEM) supplemented with 10% fetal bovine serum (FBS) and 1% penicillin-streptomycin. 24 hours prior to the experiment, cells were plated in 24-well plates at a density of 150,000 cells/well and concurrently transfected using Lipofectamine 3000 according to the manufacturer's protocol. Cells were transfected with hSERT-N1-pEYFP (Addgene #70105) or a GFP control plasmid (Lonza pmaxGFP vector). The next day the wells were washed (1×500 μL) with 1× Hank's Balanced Salt Solution supplemented with 2 mM MgCl2 and 2 mM CaCl2 (HBSS) and the plate was placed on a 37° C. water bath for the remainder of the experiment. 250 μL of HBSS containing 10 nM 5-[1,2-3H[N]]-hydroxytryptamine creatinine sulfate (NET498001MC, Lot: 2902700) was added to the wells and incubated for 15 minutes, allowing uptake into SERT expressing HEK cells. Uptake was terminated by aspiration of wells followed by washes (3×500 μL) with HBSS. […] 200 μL of media was collected from each well and placed into a scintillation vial containing 1 mL PerkinElmer Ultima Gold™ scintillation cocktail to serve as the efflux fraction. […] Radioactivity in the form of disintegrations per minute (DPM) was determined the following day with the use of a Beckman LS 6000 liquid scintillation counter. […] The GFP control cells were checked to ensure radioactivity was below background levels.

Tail suspension test = type: in vivo, mice; conditions: i.p. injection, tested after 24 h, vs vehicle
Description: Male C57/BL6J mice (9-10 weeks of age at time of experiment) were obtained from the Jackson Lab and housed in a UCD vivarium. […] All experiments were carried out by the same experimenter who performed the handling. Twenty-four hours after treatments, animals were subjected to a tail suspension test. Animals were suspended from their tails approximately 16 cm from the top of the apparatus and 25 cm from the bottom of the apparatus. Behavior was video recorded for 6 min and analyzed later by an experimenter blinded to treatment conditions. Immobility was defined as the amount of time spent not struggling or attempting to generate momentum and was scored for the entire 6 min period. All TST sessions were performed between the hours of 08:00 and 13:00.

SERT [9] = biological target: T1, SERT; conditions: other studies; cited from earlier work

T1 sequence (P31645 whole entry): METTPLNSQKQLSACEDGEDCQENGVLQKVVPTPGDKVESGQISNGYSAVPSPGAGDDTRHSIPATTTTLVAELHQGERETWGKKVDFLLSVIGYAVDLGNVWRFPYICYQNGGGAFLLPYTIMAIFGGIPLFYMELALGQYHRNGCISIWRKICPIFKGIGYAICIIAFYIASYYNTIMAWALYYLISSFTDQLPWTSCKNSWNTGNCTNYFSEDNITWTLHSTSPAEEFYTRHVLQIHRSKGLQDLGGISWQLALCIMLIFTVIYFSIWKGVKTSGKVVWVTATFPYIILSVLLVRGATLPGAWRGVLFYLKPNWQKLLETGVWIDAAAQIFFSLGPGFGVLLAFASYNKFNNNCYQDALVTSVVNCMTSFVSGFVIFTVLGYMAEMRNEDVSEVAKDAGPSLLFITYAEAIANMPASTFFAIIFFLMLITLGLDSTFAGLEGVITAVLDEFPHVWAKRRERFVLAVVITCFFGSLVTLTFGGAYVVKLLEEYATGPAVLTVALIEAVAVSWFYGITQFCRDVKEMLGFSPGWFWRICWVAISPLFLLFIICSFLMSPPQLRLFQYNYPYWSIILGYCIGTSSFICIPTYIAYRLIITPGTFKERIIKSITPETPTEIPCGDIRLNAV

Molecule | dendritic complexity (Sholl analysis, Nmax) (rat cortical neurons [1]) | dendritogenesis effect after ketanserin pretreatment (rat cortical neurons [1]) | dendritic arbor complexity (Sholl analysis) (rat cortical neurons [1]) | dendritic spine density (rat cortical neurons [2]) | spinogenesis effect after ketanserin pretreatment (rat cortical neurons [2]) | increase in body temperature (hyperthermia) [3] | locomotion at the lower doses [4] | locomotion at highest dose [4] | locomotion (total distance) in novel arena, dose dependence [4] | time spent in the center of the arena [4] | head twitch response (hallucinogenic potential) [5] | fear extinction test curve vs vehicle [6] | freezing during extinction training (day 2) [6] | conditioned freezing on extinction testing day (24-hours later, drug-free) [6] | psychlight 5-HT2A biosensor response (5-HT2A biosensor) | other results
R-3,4-Methylenedioxy methamphetamine [R-MDMA, reference compound] | increases in dendritic complexity | blocked by ketanserin | robustly increased dendritic arbor complexity | increases dendritic spine density, comparably to R-MDMA | KTSN blocks the spinogenesis effects | Neither compound induced any increases in body temperature | neither of them altered changes in locomotion or had psychostimulant properties | exhibits psychostimulant effects | dose dependent increase in locomotion | all doses decreased time spent in the center | Neither compound elicited a significant HTR | statistically lower than vehicle control | decreased freezing during extinction training and testing | decreased freezing during extinction training and testing | Neither LED nor R-MDMA induced a significant response | 
CNC(C)Cc1ccc2c(c1)OCO2 (racemic) [SR-MDMA, S,R(+/−)-3,4-methylenedioxymethamphetamine] |  |  |  |  |  |  |  |  |  |  |  |  |  |  |  | response rate in decreasing the symptoms of PTSD [7]: 83%
C[C@H](Cc1ccc2c(c1)OCO2)N(C)C [LED, (R)-1-(benzo[d][1,3]dioxol-5-yl)-N,N-dimethylpropan-2-amine] | increases in dendritic complexity | blocked by ketanserin | robustly increased dendritic arbor complexity | increases dendritic spine density | KTSN blocks the spinogenesis effects | Neither compound induced any increases in body temperature | neither of them altered changes in locomotion or had psychostimulant properties | significant decrease in locomotion | dose dependent decrease in locomotion | only the highest doss caused a decrease in time spent in the center | Neither compound elicited a significant HTR | statistically lower than the vehicle control curve | neither dose influenced freezing during extinction training | the 12.5 mg/kg dose of LED resulted in reduced freezing on testing day | Neither LED nor R-MDMA induced a significant response | promotion of plasticity (Sholl analysis), comparison of enantiomers and racemates (rat cortical neurons [1]; cultured cortical neurons, FIG. 5, listed as R-MDDMA): more effect at promoting plasticity than either the S-enantiomer or the racemic mixture; also recorded: more effective than racemic MDMA; body temperature relative to vehicle ([3]; 50 mg/kg i.p., 30-minute time point): significant decrease in temperature; fear extinction, females only ([6]; separated by sex, females): females display enhanced extinction with the 12.5 mg/kg dose; fear extinction, males only ([6]; separated by sex, males): males display enhanced extinction with the 25 mg/kg dose; [3H]5-HT release (efflux) (SERT [8]): failed to induce [^3H]5-HT release; antidepressant behavioral effect (tail suspension test immobility) (Tail suspension test): produces antidepressant behavioral effects
CC(Cc1ccc2c(c1)OCO2)N(C)C (racemic) [racemic version of LED] |  |  |  |  |  |  |  |  |  |  |  |  |  |  |  | 5-HT uptake inhibition and release (SERT [9]): moderate ability to inhibit uptake of 5-HT as well as promote its release
